Results taken from patent publication US20250215029A1 (Recludix Pharma, Inc., priority 2022, published 2025).
Read-outs that look alike come from different tables or passages of the source.

Key:
[1] = biological target: T1, Recombinant STAT6 protein (STAT6 (W123-T658)) (Homo sapiens, UniProt P42226); experiment: STAT6 Fluorescence Polarization (FP) Assay; assay type: binding; details: probe 5-FAM-Ap[…]-NH2 2 nM, 45-minute incubation
T1 construct: Recombinant STAT6 protein (STAT6 (W123-T658))
T1 sequence (P42226 123-658): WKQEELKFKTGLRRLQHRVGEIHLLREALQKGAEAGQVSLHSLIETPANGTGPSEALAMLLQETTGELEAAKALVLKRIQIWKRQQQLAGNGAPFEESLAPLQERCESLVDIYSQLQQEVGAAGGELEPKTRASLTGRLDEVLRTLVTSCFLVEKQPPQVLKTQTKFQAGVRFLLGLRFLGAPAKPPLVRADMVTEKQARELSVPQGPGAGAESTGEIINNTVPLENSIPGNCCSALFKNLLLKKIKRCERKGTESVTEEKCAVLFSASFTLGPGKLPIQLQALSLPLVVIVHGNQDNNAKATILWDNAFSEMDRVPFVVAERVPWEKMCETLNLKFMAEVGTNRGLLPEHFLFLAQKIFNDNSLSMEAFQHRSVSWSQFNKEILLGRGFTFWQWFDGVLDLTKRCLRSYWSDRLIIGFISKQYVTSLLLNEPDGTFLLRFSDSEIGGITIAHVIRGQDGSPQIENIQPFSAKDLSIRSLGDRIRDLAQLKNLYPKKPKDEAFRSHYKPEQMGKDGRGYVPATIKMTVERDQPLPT
Procedure, shortened: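 Displacement of a fluorescent phosphotyrosine peptide (2 nM) from 250 nM STAT6 (W123-T658) is measured by polarization after a 45-minute room-temperature incubation. Compounds are titrated serially at 1% DMSO, and IC50 values derive from regression of mP on log concentration.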

[2] = biological target: T2, Recombinant STAT3 protein (STAT3 (G127-I722)) (Homo sapiens, UniProt P40763); experiment: STAT3 Fluorescence Polarization (FP) Assay; assay type: binding; details: probe 5-FAM-GpYLPQTV-NH2 2 nM, 45-minute incubation
T2 construct: Recombinant STAT3 protein (STAT3 (G127-I722))
Procedure, shortened: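 Read-out is fluorescence polarization (mP) after 45 min at room temperature, with IC50 fitted by nonlinear regression against log compound concentration. Mixture: 25 nM STAT3 (G127-I722), 2 nM 5-FAM-GpYLPQTV-NH2 phosphopeptide, 10 mM HEPES pH 7.4 buffer, 1% DMSO.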

[3] = STAT6 (W123-T658) 250 nM, read-out: STAT6 (FP assay IC50 class)
[4] = STAT3 (G127-I722) 25 nM, read-out: STAT3 (FP assay IC50 class)

T2 sequence (P40763 127-722): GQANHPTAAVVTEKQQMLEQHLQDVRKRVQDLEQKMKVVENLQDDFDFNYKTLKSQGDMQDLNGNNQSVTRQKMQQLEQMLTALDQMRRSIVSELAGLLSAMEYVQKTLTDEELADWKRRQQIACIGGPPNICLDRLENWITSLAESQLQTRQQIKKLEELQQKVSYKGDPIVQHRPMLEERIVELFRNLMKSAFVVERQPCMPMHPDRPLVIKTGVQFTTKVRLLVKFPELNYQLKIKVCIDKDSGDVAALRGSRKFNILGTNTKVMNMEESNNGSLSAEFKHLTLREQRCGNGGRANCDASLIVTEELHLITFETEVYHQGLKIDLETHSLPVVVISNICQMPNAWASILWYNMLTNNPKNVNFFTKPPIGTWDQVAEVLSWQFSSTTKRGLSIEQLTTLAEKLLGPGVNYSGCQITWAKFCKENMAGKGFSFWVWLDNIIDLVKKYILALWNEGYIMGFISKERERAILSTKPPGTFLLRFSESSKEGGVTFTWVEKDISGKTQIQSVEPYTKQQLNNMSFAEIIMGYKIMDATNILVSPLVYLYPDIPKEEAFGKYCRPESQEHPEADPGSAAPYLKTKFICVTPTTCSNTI

SMILES | IC50 [1, 3] [µM] | IC50 [2, 4] [µM] | IC50 ([1]; STAT6 250 nM, read-out: STAT6 (FP assay IC50)) [µM] | IC50 ([2]; STAT3 25 nM, read-out: STAT3 (FP assay IC50)) [µM]
O=C(N[C@H]1CCCC[C@H]2CC[C@@H](C(=O)NC3CN(C(=O)OC4CC4)C3)N2C1=O)c1cc2cc(C(F)P(=O)(O)O)ccc2s1 (stereo partly drawn) [Compound 528, ((2-(((3S,6S,10aS)-3-((1-(cyclopropoxycarbonyl)azetidin-3-yl)carbamoyl)-5-oxodecahydropyrrolo[1,2-a]azocin-6-yl)carbamoyl)benzo[b]thiophen-5-yl)fluoromethyl)phosphonic acid] | 0.3 to 3 | 1 to 10 |  | 
O=C(N[C@H]1CCCC[C@H]2CC[C@@H](C(=O)N3C[C@H](c4cccnc4)CC34CC4)N2C1=O)c1cc2cc([C@H](F)P(=O)(O)O)ccc2s1 (single isomer, unassigned) [Compound 911] | ≤ 0.3 | 1 to 10 |  | 
CC1(C)C[C@@H](c2ccccc2)CN1C(=O)[C@@H]1CC[C@@H]2CCCC[C@H](NC(=O)c3cc4cc(C(F)(F)P(=O)(O)O)ccc4s3)C(=O)N21 [Compound 814, ((2-(((3S,6S,10aS)-3-((S)-2,2-dimethyl-4-phenylpyrrolidine-1-carbonyl)-5-oxodecahydropyrrolo [1,2-a]azocin-6-yl)carbamoyl)benzo [b]thiophen-5-yl)difluoromethyl) phosphonic acid] | 0.3 to 3 | 1 to 10 |  | 
N#C[C@@H]1CN(C(=O)[C@@H]2CC[C@@H]3CCCC[C@H](NC(=O)c4cc5cc(C(F)(F)P(=O)(O)O)ccc5s4)C(=O)N32)C[C@H]1c1cc[nH]c(=O)c1 (relative stereo) [Compound 86, ((2-(((3S,6S,10aS)-3-(rel-(trans)-3-cyano-4-(2-oxo-1,2-dihydropyridin-4-yl)pyrrolidine-1-carbonyl)-5-oxodecahydropyrrolo [1,2-a]azocin-6-yl)carbamoyl)benzo[b]thiophen-5-yl)difluoromethyl) phosphonic acid] |  |  | ≤ 0.3 | 0.1 to 1
Cn1nccc1N1CC[C@@H](NC(=O)[C@@H]2CC[C@@H]3CCCC[C@H](NC(=O)c4cc5cc(C(F)P(=O)(O)O)ccc5s4)C(=O)N32)C1 (stereo partly drawn) [Compound 542, (fluoro(2-(((3S,6S,10aS)-3-(((R)-1-(1-methyl-1H-pyrazol-5-yl)pyrrolidin-3-yl)carbamoyl)-5-oxodecahydropyrrolo[1,2-a]azocin-6-yl)carbamoyl)benzo[b]thiophen-5-yl)methyl)phosphonic acid] | 3 to 30 | 1 to 10 |  | 
Cc1ccncc1C1CN(C(=O)[C@@H]2CC[C@@H]3C[C@H](C)C[C@H](NC(=O)c4cc5cc([C@@H](F)P(=O)(O)O)ccc5s4)C(=O)N32)C1 (single isomer, unassigned) [Compound 753] | 3 to 30 | < 0.1 |  | 
O=C(N[C@H]1CCCC[C@H]2CC[C@@H](C(=O)NCc3ccn4ccnc4c3)N2C1=O)c1cc2cc(C(F)(F)P(=O)(O)O)ccc2s1 [Compound 828] | 0.3 to 3 | < 0.1 |  | 
CCOc1ccncc1C1CN(C(=O)[C@@H]2CC[C@@H]3CCC[C@H](NC(=O)c4cc5cc(C(F)P(=O)(O)O)ccc5s4)C(=O)N32)C1 (stereo partly drawn) [Compound 597, ((2-(((3S,6S,9aS)-3-(3-(4-ethoxypyridin-3-yl)azetidine-1-carbonyl)-5-oxooctahydro-1H-pyrrolo[1,2-a]azepin-6-yl)carbamoyl)benzo [b]thiophen-5-yl)fluoromethyl) phosphonic acid] | 3 to 30 | < 0.1 |  | 
C[C@@H]1CC[C@H](NC(=O)c2cc3cc(CP(=O)(O)O)ccc3s2)C(=O)N2[C@H](CC[C@H]2C(=O)N2CC(c3cnccc3F)C2)C1 [Compound 603, ((2-(((3S,6S,9R,10aR)-3-(3-(4-fluoropyridin-3-yl)azetidine-1-carbonyl)-9-methyl-5-oxodecahydropyrrolo [1,2-a]azocin-6-yl)carbamoyl)benzo [b]thiophen-5-yl)methyl) phosphonic acid] | 3 to 30 | < 0.1 |  | 
N#Cc1cnc(C2CN(C(=O)[C@@H]3CC[C@@H]4CCCC[C@H](NC(=O)c5cc6cc(C(F)(F)P(=O)(O)O)ccc6s5)C(=O)N43)C2)nc1 [Compound 806, ((2-(((3S,6S,10aS)-3-(3-(5-cyanopyrimidin-2-yl)azetidine-1-carbonyl)-5-oxodecahydropyrrolo [1,2-a]azocin-6-yl)carbamoyl)benzo [b]thiophen-5-yl)difluoromethyl) phosphonic acid] | 3 to 30 | < 0.1 |  | 
Cc1ccncc1C1CN(C(=O)[C@@H]2CC[C@@H]3CCC[C@H](NC(=O)c4cc5cc(CP(=O)(O)O)ccc5s4)C(=O)N32)C1 [Compound 214, ((2-(((3S,6S,9aS)-3-(3-(4-methylpyridin-3-yl)azetidine-1-carbonyl)-5-oxooctahydro-1H-pyrrolo[1,2-a]azepin-6-yl)carbamoyl)benzo[b]thiophen-5-yl)methyl)phosphonic acid] | 3 to 30 | 0.1 to 1 |  | 
O=C(N[C@H]1CCC[C@H]2CC[C@@H](C(=O)N3CC(c4cnccc4C(F)F)C3)N2C1=O)c1cc2cc(C(F)(F)P(=O)(O)O)ccc2s1 [Compound 819, ((2-(((3S,6S,9aS)-3-(3-(4-(difluoromethyl)pyridin-3-yl)azetidine-1-carbonyl)-5-oxooctahydro-1H-pyrrolo[1,2-a]azepin-6-yl)carbamoyl)benzo [b]thiophen-5-yl)difluoromethyl) phosphonic acid] | 0.3 to 3 | 0.1 to 1 |  | 
COc1ccncc1C1CN(C(=O)[C@@H]2CC[C@@H]3C[C@H](C)C[C@H](NC(=O)c4cc5cc([C@H](F)P(=O)(O)O)ccc5s4)C(=O)N32)C1 [Compound 766, ((R)-fluoro(2-(((3S,6S,8R,9aR)-3-(3-(4-methoxypyridin-3-yl)azetidine-1-carbonyl)-8-methyl-5-oxooctahydro-1H-pyrrolo[1,2-a]azepin-6-yl)carbamoyl)benzo [b]thiophen-5-yl)methyl) phosphonic acid] | 3 to 30 | < 0.1 |  | 
N#C[C@H]1[C@H](c2ccccc2)CN(C(=O)[C@@H]2CC[C@@H]3CCCC[C@H](NC(=O)c4cc5cc(CP(=O)(O)O)ccc5s4)C(=O)N32)C12CC2 [Compound 929, ((2-(((3S,6S,10aS)-3-((6R,7S)-7-cyano-6-phenyl-4-azaspiro[2.4]heptane-4-carbonyl)-5-oxodecahydropyrrolo [1,2-a]azocin-6-yl)carbamoyl)benzo [b]thiophen-5-yl)methyl) phosphonic acid] | ≤ 0.3 | 1 to 10 |  | 
CN(C)C(=O)c1ccncc1C1CN(C(=O)[C@@H]2CC[C@@H]3CCC[C@H](NC(=O)c4cc5cc([C@@H](F)P(=O)(O)O)ccc5s4)C(=O)N32)C1 (single isomer, unassigned) [Compound 696] | 3 to 30 | 1 to 10 |  | 
CC(C)[C@H]1CC[C@H](NC(=O)c2cc3cc(C(F)P(=O)(O)O)ccc3s2)C(=O)N2[C@H](CC[C@H]2C(=O)N2C[C@@H](C#N)[C@H](c3ccccc3)C2)C1 (single isomer, unassigned) [Compound 238] | ≤ 0.3 | 1 to 10 |  | 
N#C[C@@H]1[C@@H](c2ccccc2)CN(C(=O)[C@@H]2CC[C@@H]3CCC[C@H](NC(=O)c4cc5cc([C@H](F)P(=O)(O)O)ccc5s4)C(=O)N32)C12CC2 (single isomer, unassigned) [Compound 919] | ≤ 0.3 | 1 to 10 |  | 
